According to patent publication US12076305B2, “Compositions comprising a conjugate of quinic acid with caffeic acid, cosmetic and therapeutic uses” (CALSCIENCE INTERNATIONAL LTD, priority 2013, dated 2024):

Legend:
[1] = test system: Human Foreskin Fibroblasts (HFFs); experiment: WST-1 Cell Proliferation Assay in HFFs; assay type: cell-based; conditions: 1/1000 and 2/1000 dilutions
Description: The WST-1 Cell Proliferation Assay provides a sensitive and accurate assay for cell proliferation and cytotoxicity (cell viability). The WST assay is based on the cleavage of the tetrazolium salt WST-1 to formazan by cellular mitochondrial dehydrogenases. Expansion in the number of viable cells results in an increase in the overall activity of the mitochondrial dehydrogenases in the sample. The augmentation in enzyme activity results in an increase in the amount of formazan dye formed. The formazan dye produced by viable cells was quantified by a multi-well spectrophotometer by measuring the absorbance of the dye solution at 440 nm. The compound provided was tested in the WST assay over a range of dilutions. […] The results of the assay show the standard deviation (SD) for 1,5-DCQA (2066) and the control, and the mean values for 1,5-DCQA (2066) and the control.

Pp65 (ser 536) = experiment: Western blot of LNCaP cell extracts probed for Pp65 (ser 536); assay type: cell-based; conditions: LNCaP cells; 24 hours; 0.1, 1, 3, 10, 30, 100 μM
Experimental: (§1) Lanes 1 and 2 of the Western blot show the expression levels Hela control lysates comprising TNF-alpha (TNFα), in stimulated and unstimulated conditions. Lanes 3 and 4 show the results of LNCaP cell extracts, in stimulated and unstimulated conditions. In this case, the vehicle used is ethanol. Lanes 5 to 10 show the results of LNCaP cell extracts incubated for 24 hours in 0.1, 1, 3, 10, 30, 100 μM of 1,5-DCQA, respectively. Tubulin (50kD) was used as a loading control.

p65 = experiment: Western blot of LNCaP cell extracts probed for p65; assay type: cell-based; conditions: LNCaP cells; 24 hours; 0.1, 1, 3, 10, 30, 100 μM
Experimental: as §1

Sirtuin 3 (SIRT3) = experiment: Taqman Real Time-PCR expression of Sirtuin 3 in HFFs with/without H2O2 stress; assay type: cell-based, Human; conditions: for ddct (−2.079) (SIRT3) / Relative Expression of SIRT3 / dCt (SIRT3) / SIRT3 (Ct): 1/1000 dilution; for dCt (SIRT3): vs HPRT
Experimental: (§2) The following results shown in FIGS. 2 to 7 relate to the analysis of Senescence tests on compound 2066 (1,5-dicaffeoylquinic acid or 1,5-DCQA). The experiments were conducted using Human Foreskin Fibroblasts (HFFs).
(§3) In the following experiments, HFFs were challenged for a period of two hours with 150 μM hydrogen peroxide (H2O2), to stimulate premature senescence in the presence and absence of 1,5-Dicaffeoylquinic acid (1/1000 dilution), and subsequently assayed by Taqman Real Time-PCR for the expression of key senescence associated genes.
(§4) These genes are involved in cell cycle regulation and mitochondrial stress responses. Challenge with a near lethal level of oxidant stress typically induces an increase in SIRT2 and decrease in SIRT3 expression. […] This is indicative of each having a potential for stimulating cell proliferation in the absence of oxidant challenge.
(§5) The results shown in Table 2 and FIGS. 2 to 7 were generated using the polymerase chain reaction (PCR), wherein the dCt and ddCT values are results used in statistical analysis. The abbreviation dCt relates to “delta cycle threshold” and the abbreviation ddCt relates to “delta delta cycle threshold”. In these experiments, HPRT (hypoxanthine phosphoribosyltransferase, a protein from the HPRT-1 gene) was used as a control.

XRCC5 = experiment: Taqman Real Time-PCR expression of XRCC5 in HFFs with/without H2O2 stress; assay type: cell-based, Human; conditions: for ddct (−1.292) (XRCC5) / Relative Expression of XRCC5 / dCt (XRCC5) / XRCC5 (Ct): 1/1000 dilution; for dCt (XRCC5): vs HPRT
Experimental: as §2, §3
XRCC5 is a double strand break repair protein.
as §5

p16 = experiment: Taqman Real Time-PCR expression of p16 in HFFs with/without H2O2 stress-induced premature senescence; assay type: cell-based, Human; conditions: for ddct (1.275) (P16) / Relative Expression of P16 / dCt (P16) / P16 (Ct): 1/1000 dilution; for dCt (P16): vs HPRT
Experimental: as §2, §3, §5

MMP-9 = experiment: Western blot of LNCaP cell extracts probed for MMP-9; assay type: cell-based; conditions: LNCaP cells; 24 hours; at 0.1 μM to 100 μM
Experimental: as §1

Sirtuin 2 (SIRT2) = experiment: Taqman Real Time-PCR expression of Sirtuin 2 in HFFs with/without H2O2 stress; assay type: cell-based, Human; conditions: for ddct (−0.016) (SIRT2) / Relative Expression of SIRT2 / dCt (SIRT2) / SIRT2 (Ct): 1/1000 dilution; for dCt (SIRT2): vs HPRT
Experimental: as §2, §3, §4, §5

hPOT1 = experiment: Taqman Real Time-PCR expression of hPOT1 in HFFs with/without H2O2 stress; assay type: cell-based, Human; conditions: for ddct (−1.835) (hPOT1) / Relative Expression of hPOT1 / dct (hPOT1) / HPOT1 (Ct): 1/1000 dilution; for dct (hPOT1): vs HPRT
Experimental: as §2, §3
These findings are supported by an analysis of the Protection of Telomeres gene (POT 1).
as §5

p21 = experiment: Taqman Real Time-PCR expression of p21 in HFFs with/without H2O2 stress; assay type: cell-based, Human; conditions: for ddct (−3.761) (P21) / Relative Expression of P21 / dCt (P21) / P21 (Ct): 1/1000 dilution; for dCt (P21): vs HPRT
Experimental: as §2, §3, §5

[2] = HFFs, & stress (150 μM H2O2, two hours)
[3] = & stress (150 μM H2O2, two hours)

O=C(/C=C/c1ccc(O)c(O)c1)O[C@@H]1C[C@](OC(=O)/C=C/c2ccc(O)c(O)c2)(C(=O)O)C[C@@H](O)[C@H]1O [1,5-DCQA, 1,5-dicaffeoylquinic acid]
cell viability (WST-1) [1]: beneficial to cell viability | inhibition of the phosphorylation of p65 (Pp65 (ser 536)): does inhibit | inhibition of the expression of p65 (p65): does not inhibit | ddct (−2.079) (SIRT3) (Sirtuin 3 (SIRT3); HFFs, & stress (150 μM H2O2)): −0.120 | Relative Expression of SIRT3 (Sirtuin 3 (SIRT3); HFFs, & stress (150 μM H2O2), media = 1.000, stress alone 0.794): 1.086 | dCt (SIRT3) (Sirtuin 3 (SIRT3); HFFs, & stress (150 μM H2O2)): 1.959 | SIRT3 (Ct) (Sirtuin 3 (SIRT3); [2]): 29.3 | SIRT3 (Ct) (Sirtuin 3 (SIRT3); HFFs, no stress): 28.56 | ddct (−2.079) (SIRT3) (Sirtuin 3 (SIRT3); HFFs, no stress): 0.148 | Relative Expression of SIRT3 (Sirtuin 3 (SIRT3); HFFs, no stress, media = 1.000): 0.903 | dCt (SIRT3) (Sirtuin 3 (SIRT3); HFFs, no stress): 2.227 | change in SIRT3 expression (Sirtuin 3 (SIRT3); HFFs, following oxidant challenge): increase | up regulation of SIRT3 expression (Sirtuin 3 (SIRT3); senescent fibroblasts): approximately 36% | induction of DNA breaks (from XRCC5 expression) (XRCC5): does not induce DNA breaks | ddct (−1.292) (XRCC5) (XRCC5; & stress (150 μM H2O2)): −0.141 | Relative Expression of XRCC5 (XRCC5; & stress (150 μM H2O2), media = 1.000, stress alone 2.237): 1.103 | dCt (XRCC5) (XRCC5; & stress (150 μM H2O2)): −1.433 | XRCC5 (Ct) (XRCC5; [3]): 25.9 | XRCC5 (Ct) (XRCC5; no stress): 25.48 | ddct (−1.292) (XRCC5) (XRCC5; no stress): 0.444 | Relative Expression of XRCC5 (XRCC5; no stress, media = 1.000): 0.735 | dCt (XRCC5) (XRCC5; no stress): −0.848 | expression of XRCC5 in comparison with the control data set (XRCC5; with and without 150 μM H2O2): substantially unaltered | protection of p16 expression from oxidant challenge (p16; 150 μM H2O2): excellent protection from oxidant challenge | ddct (1.275) (P16) (p16; & stress (150 μM H2O2)): −0.519 | Relative Expression of P16 (p16; & stress (150 μM H2O2), media = 1.000, stress alone 3.151): 1.433 | dCt (P16) (p16; & stress (150 μM H2O2)): 0.756 | P16 (Ct) (p16; [3]): 28.09 | P16 (Ct) (p16; no stress): 27.66 | ddct (1.275) (P16) (p16; no stress): 0.050 | Relative Expression of P16 (p16; no stress, media = 1.000): 0.966 | dCt (P16) (p16; no stress): 1.325 | effect on p16 expression in untreated cells (p16; no H2O2): no stress effect | inhibition of MMP-9 (MMP-9): clearly demonstrated | ddct (−0.016) (SIRT2) (Sirtuin 2 (SIRT2); HFFs, & stress (150 μM H2O2)): 0.371 | Relative Expression of SIRT2 (Sirtuin 2 (SIRT2); HFFs, & stress (150 μM H2O2), media = 1.000, stress alone 0.762): 0.773 | dCt (SIRT2) (Sirtuin 2 (SIRT2); HFFs, & stress (150 μM H2O2)): 0.387 | SIRT2 (Ct) (Sirtuin 2 (SIRT2); [2]): 27.72 | SIRT2 (Ct) (Sirtuin 2 (SIRT2); HFFs, no stress): 27.16 | ddct (−0.016) (SIRT2) (Sirtuin 2 (SIRT2); HFFs, no stress): 0.817 | Relative Expression of SIRT2 (Sirtuin 2 (SIRT2); HFFs, no stress, media = 1.000): 0.568 | dCt (SIRT2) (Sirtuin 2 (SIRT2); HFFs, no stress): 0.833 | change in SIRT2 expression (Sirtuin 2 (SIRT2); HFFs, without stress): significant decrease | down regulation of SIRT2 expression (Sirtuin 2 (SIRT2); normal fibroblasts): approximately 52% | effect on hPOT1 expression against oxidant challenge (hPOT1; 150 μM H2O2): protective effect | ddct (−1.835) (hPOT1) (hPOT1; & stress (150 μM H2O2)): 0.405 | Relative Expression of hPOT1 (hPOT1; & stress (150 μM H2O2), media = 1.000, stress alone 1.625): 0.755 | dct (hPOT1) (hPOT1; & stress (150 μM H2O2)): 2.240 | HPOT1 (Ct) (hPOT1; [3]): 29.5758 | HPOT1 (Ct) (hPOT1; no stress): 29.47 | ddct (−1.835) (hPOT1) (hPOT1; no stress): 1.306 | Relative Expression of hPOT1 (hPOT1; no stress, media = 1.000): 0.404 | dct (hPOT1) (hPOT1; no stress): 3.141 | p21 expression levels following stress (p21; 150 μM H2O2): substantially unchanged | ddct (−3.761) (P21) (p21; & stress (150 μM H2O2)): −2.263 | Relative Expression of P21 (p21; & stress (150 μM H2O2), media = 1.000, stress alone 4.519): 4.801 | dCt (P21) (p21; & stress (150 μM H2O2)): −6.024 | P21 (Ct) (p21; [3]): 21.31 | P21 (Ct) (p21; no stress): 22.4 | ddct (−3.761) (P21) (p21; no stress): −0.167 | Relative Expression of P21 (p21; no stress, media = 1.000): 1.122 | dCt (P21) (p21; no stress): −3.928
